This is an account of results in publication PMC7707092, “Discovery and characterization of ORM‐11372, a novel inhibitor of the sodium‐calcium exchanger with positive inotropic activity” (British Journal of Pharmacology, 2020).

Values joined by “and” are separate entries in the source; they are usually repeats but may differ in a detail not shown here. Equal entries are not always repeated. Where two headings read alike, the source gives them in different places.

Assay [1] concerns the target T1, rat NCX 1.1 current (I NCX) (Rattus norvegicus, UniProt Q01728).
T1 construct: In rat primary ventricular CMs, the magnitude of outward I NCX; endogenous in cells; host or cells: freshly isolated left ventricular cardiomyocytes of male Wistar rats
In words: NCX current (I NCX), whole‐cell patch‐clamp in rat ventricular cardiomyocytes. The assay is classed as cell-based. On the procedure: Rats were anaesthetized with sodium thiopental (0.1 g·kg^−1, i.p.) and injected with heparin sodium (500 IU, i.v.). Hearts were rapidly excised, mounted via the aorta on a Langendorff apparatus, and retrogradely perfused at 37°C with the Krebs–Henseleit solution for 5 min, with Krebs‐Henseleit solution (composition (in mM): 118.5 NaCl, 4 KCI, 2 CaCl2, 1 MgSO4, 1.2 NaH2PO4, 25 NaHCO3, and 11.1 glucose), pH 7.4 when saturated with a mixture of 95% O2 and 5% CO2. The perfusion of the heart was continued using Ca^2+‐free Krebs–Henseleit solution for 10 min, and completed by the addition of 0.05% collagenase (type I), 0.05% hyaluronidase, and 200‐μM CaCl2, for a further 10 min. Subsequently, the left ventricular myocardium was minced and gently agitated. Dissociated cells were stored at room temperature in a solution containing (in mM) 89 KOH, 70 glutamate, 15 taurine, 30 KCI, 10 KH2PO4,10 HEPES, 0.5 MgCl2, 11 glucose, and 0.5 EGTA, and the pH was set to 7.3 using KOH. […] One drop of the cell suspension was placed in a recording chamber and mounted on the stage of an inverted microscope (Olympus IX51, Olympus, Japan), and the individual myocytes were allowed to settle and adhere to the bottom of the chamber for at least 5 min before initiating superfusion.
Manual patch‐clamp recordings of membrane currents (I NCX, L‐type Ca^2+ channel current [I CaL], human cardiac sodium 1.5 current [I Na], and I hERG) were undertaken using either an Axopatch 200B or Axopatch ID amplifier (Molecular Devices, USA), using the whole‐cell configuration. Cells were at least initially (except when recording I Na) perfused with an extracellular solution consisting of (in mM) 143 NaCl, 4 KCl, 1.8 CaCl2, 1.2 MgCl2, 5 glucose, and 10 HEPES (pH 7.4 with NaOH; osmolarity adjusted to 301 ± 3 mOsm). A slightly modified version was used for the rat ventricular CMs (in mM: 144 NaCl, 0.4 NaH2PO4, 4.0 KCl, 1.8 CaCl2, 0.53 MgSO4, 5.5 glucose, and 5.0 HEPES). Patch pipettes were pulled with a P‐2000 or P‐97 micropipette puller (Sutter Instruments, USA) from borosilicate glass capillaries and had resistances of between 2 and 4 MΩ when filled with any of the pipette solutions (see below). The data were filtered at 1 or 2 kHz and digitized at 10 kHz with acquisition and analysis performed by use of pClamp software (Versions 8–10; Molecular Devices; RRID:SCR_011323).
After the establishment of the whole‐cell configuration with hiPSC‐derived CMs or rat ventricular myocytes, the extracellular solution was switched to a K^+‐free bath solution as described earlier (Hobai, Khananshvili, & Levi, 1997; Jost et al., 2013). The solution was composed of (in mM) 135 NaCl, 10 CsCl, 1 CaCl2, 1 MgCl2, 0.2 BaCl2, 0.33 NaH2PO4, 10 TEACI, 10 HEPES, and 10 glucose supplemented with 20‐μM ouabain, 50‐μM lidocaine, and 1‐μM nisoldipine or 2‐μM nitrendipine at pH 7.0 (osmolarity adjusted to 301 ± 3 mOsm). The pipette solution contained (in mM) 140 CsOH, 75 aspartic acid, 20 TEACI, 5 MgATP, 10 HEPES, 20 NaCl, 20 EGTA, and 10 CaCl2 (pH adjusted to 7.2 with CsOH; osmolarity adjusted to 290 ± 2 mOsm). The free intracellular Ca^2+ level in the patch pipette was 140 nM according to Maxchelator (RRID:SCR_000459) software (Bers, Patton, & Nuccitelli, 2010).
The measurement of current in the K^+‐free bath solution using a ramp voltage protocol at 20‐s intervals represented the first control, after which values were measured in the presence of one or more increasing concentrations of ORM‐11372 and finally upon exposure to 10‐mM NiCl2. The voltage protocol consisted of voltage ramps (at a rate of 100 mV·s^−1) with a holding potential of […], which changed to −100 mV and then returned to −40 mV. I NCX was defined as the Ni^2+‐sensitive current value. However, for rat ventricular myocytes, the magnitude of the inward current (forward mode) was particularly small and variable. […]

The test system of another assay is NCX. Further details: method as in Jost et al., 2013; Kohajda et al., 2016. Particulars: Dog, reference not given, ref Jost et al., 2013, Kohajda et al., 2016, cited from earlier work.

In the case of `Nc1cccc(-c2ccc(CNc3ccc(F)cc3)o2)c1` [ORM‐11372], the inhibition at 0.004 µM in assay [1] (4 nM, read-out: in vitro NCX 1.1 current inhibition) was 34%. Further, in assay [1] (36 nM, read-out: in vitro NCX 1.1 current inhibition), the inhibition at 0.036 µM is 67%. Further, the inhibition at 0.092 µM in assay [1] (92 nM, read-out: in vitro NCX 1.1 current inhibition) was found to be 79%. In assay [1] (351 nM, read-out: in vitro NCX inhibition), the inhibition at 0.351 µM came to 90%. Moreover, the IC50 was 10 nM in assay [1] (rat CMs, summarised (discussion), read-out: IC50 rat NCX 1.1 currents); 11.3 nM and 11 nM in assay [1] (rat primary ventricular CMs, read-out: IC50 outward I NCX (reverse mode)). Also, the inhibition at 0.01 µM in assay [1] (rat ventricular CMs, 10 nM, altered conditions to enhance inward current, n=3, read-out: inhibition of inward I NCX (forward mode)) worked out at 53.8 ± 3.9%.
Regarding `O=C(CN1CCC(O)CC1)Nc1ccc(Oc2ccc3c(c2)CCC(c2ccccc2)O3)nc1` (stereo not drawn) [ORM-10962], the IC50 in the assay with NCX (read-out: IC50 NCX forward) was 67 nM; with NCX (read-out: IC50 NCX reverse), 55 nM.
